Source: publication PMC6503114, “Application of Antimicrobial Peptides of the Innate Immune System in Combination With Conventional Antibiotics—A Novel Way to Combat Antibiotic Resistance?” (Frontiers in Cellular and Infection Microbiology, 2019)
Marks after values point to notes of the source that are not given here. Bridges are numbered along the chain shown (N, C = ends). Where no end group is shown, it is not given here.

Columns and labels:
MRSA ATCC 33591 = assay: microbe, parasite or virus in culture; format: cell-based, Staphylococcus aureus; conditions: median of 3–6 experiments, square brackets = twice the maximal tested concentration
bacteria = assay: Checkerboard titration, synergy cases with conventional antibiotics (all tested bacteria); format: cell-based; conditions: in vitro, human AMPs
Experimental: (§1) According to checkerboard titration template, one component (A) of the combination was diluted along the rows of the plate, while the other (B) was diluted down the columns, thereby creating the variety of mixtures with different concentrations of tested compounds. 2.5 μl of corresponding solutions of the components A and B were added into each well of the plate. Into the first column and the last row the same amount of 10 mM sodium phosphate buffer, pH 7.4, containing 0.1% of BSA was introduced instead of the second component. Thus, all wells contained 5 μl of antimicrobial compounds solutions (solo or in combination). The same volume of bacterial suspension, prepared as described for microdilution assay, was added into each well. The results were recorded after the overnight incubation, visually indicating the presence or absence of the microbial growth in the corresponding wells. Based on the obtained data the isobolograms of combined action were plotted and/or Fractional Inhibitory Concentration Indices (FICI) were calculated. […] Depending on the minimal value of the FICI the combined effect of the combination was classified as antagonism (FICI > 2), independent action (1 < FICI ≤ 2), additivity (0.5 < FICI ≤ 1) or synergy (FICI ≤ 0.5), as is recommended in the literature and due to some drawbacks of the serial dilution method (Hsieh et al., [1993]; Orhan et al., [2005]; Fehri et al., [2007]). FICIs were assessed in 3–6 independent experiments and median values were used to define the nature of interaction.

A. baumannii 7226/16 [1] = assay: microbe, parasite or virus in culture; format: cell-based; conditions: Acinetobacter baumannii; A. baumannii 7226/16, drug-resistant clinical isolate
Experimental: (§2) Prior to the “checkerboard” synergy test the minimal inhibitory concentrations (MIC) of individual substances were determined using broth microdilution assay. Testing was performed in 60-well polystyrene Terasaki microplates with V-shaped bottom generally according to the guidelines of the European Committee for Antimicrobial Susceptibility Testing with subtle modifications designed for AMP testing (Tossi et al., [1997]; Wiegand et al., [2008]). Cultivation of bacteria was carried out in 2.1% Müller-Hinton broth at 37°C with shaking. Two-fold serial dilutions of peptides, antibiotics and other antimicrobials were made with 10 mM sodium phosphate buffer, pH 7.4, containing 0.1% of BSA. The plates were preliminary incubated with 0.1% BSA for 1 h at 37°C to reduce a non-specific binding of peptides to the plates. After that BSA was removed, and serial dilutions were added into the plate wells in triplicates followed by the same volume of the suspension of bacterial cells in logarithmic phase of growth in concentration of 1 × 10^6 CFU/ml. After the 18 h overnight incubation at 37°C, the MIC value for each compound was determined as its lowest concentration completely inhibiting the visible growth of bacteria. The final results were calculated as median values based on 3–6 independent experiments.

E. coli ESBL 521/17 [2] = assay: microbe, parasite or virus in culture; format: cell-based; conditions: Escherichia coli, ESBL521/17; E. coli ESBL 521/17, drug-resistant clinical isolate; square brackets = twice the maximal tested concentration
Experimental: as §2

[3] = system: K. pneumoniae ESBL 344/17; assay: microbe, parasite or virus in culture; format: cell-based; conditions: Klebsiella pneumoniae, ESBL344/17; K. pneumoniae ESBL 344/17, drug-resistant clinical isolate
Experimental: as §2

P. aeruginosa MDR 522/17 [4] = assay: microbe, parasite or virus in culture; format: cell-based; conditions: Pseudomonas aeruginosa, MDR522/17; P. aeruginosa MDR 522/17, drug-resistant clinical isolate
Experimental: as §2

S. aureus 1399/17 [5] = assay: microbe, parasite or virus in culture; format: cell-based; conditions: Staphylococcus aureus; S. aureus 1399/17, drug-resistant clinical isolate; read-out: MIC
Experimental: as §2

E. coli ESBL 521/17 [6] = assay: Checkerboard titration (FICI); format: cell-based, Escherichia coli
Experimental: as §1, with “The combined antimicrobial action of AMPs and other antimicrobial compounds was assessed using checkerboard titration approach under the conditions similar to that of the microdilution assay. According” for “According”

A. baumannii 7226/16 [7] = assay: Checkerboard titration (FICI); format: cell-based, Acinetobacter baumannii
Experimental: as §1, with “The combined antimicrobial action of AMPs and other antimicrobial compounds was assessed using checkerboard titration approach under the conditions similar to that of the microdilution assay. According” for “According”

P. aeruginosa MDR 522/17 [8] = assay: Checkerboard titration (FICI); format: cell-based, Pseudomonas aeruginosa
Experimental: as §1, with “The combined antimicrobial action of AMPs and other antimicrobial compounds was assessed using checkerboard titration approach under the conditions similar to that of the microdilution assay. According” for “According”

[9] = system: K. pneumoniae ESBL 344/17; assay: Checkerboard titration (FICI); format: cell-based, Klebsiella pneumoniae
Experimental: as §1, with “The combined antimicrobial action of AMPs and other antimicrobial compounds was assessed using checkerboard titration approach under the conditions similar to that of the microdilution assay. According” for “According”

S. aureus 1399/17 [10] = assay: Checkerboard titration (FICI); format: cell-based, Staphylococcus aureus
Experimental: as §1, with “The combined antimicrobial action of AMPs and other antimicrobial compounds was assessed using checkerboard titration approach under the conditions similar to that of the microdilution assay. According” for “According”

[11] = antibiotic in combination with ChBac3.4
[12] = antibiotic in combination with PG-1

| Compound | MIC (MRSA ATCC 33591) | AMP concentration in synergy cases with conventional antibiotics (bacteria) [µM] | MIC (A. baumannii 7226/16 [1]) [µM] | MIC (E. coli ESBL 521/17 [2]) [µM] | MIC [3] [µM] | MIC (P. aeruginosa MDR 522/17 [4]) [µM] | MIC (S. aureus 1399/17 [5]) [µM] | Minimal FICI (E. coli ESBL 521/17 [6]; [11]) | Minimal FICI (E. coli ESBL 521/17 [6]; [12]) | Minimal FICI (A. baumannii 7226/16 [7]; [11]) | Minimal FICI (A. baumannii 7226/16 [7]; [12]) | Minimal FICI (P. aeruginosa MDR 522/17 [8]; [11]) | Minimal FICI (P. aeruginosa MDR 522/17 [8]; [12]) | Minimal FICI [9, 11] | Minimal FICI [9, 12] | Minimal FICI (S. aureus 1399/17 [10]; [11]) | Minimal FICI (S. aureus 1399/17 [10]; [12]) |
| --- | --- | --- | --- | --- | --- | --- | --- | --- | --- | --- | --- | --- | --- | --- | --- | --- | --- |
| GIGDPVTCLKSGAICHPVFCPRRYKQIGTCGLPGTKCCKKP (disulfide 8-37, 15-30, 20-38 (inferred)) [hBD-2] | >100 [200] μM | 0.2 to 1.6 | – | – | – | – | – | – | – | – | – | – | – | – | – | – | – |
| GIINTLQKYYCRVRGGRCAVLSCLPKEEQIGKCSTRGRKCCRRKK (disulfide 11-40, 18-33, 23-41 (inferred)) [hBD-3] | – | 0.08 to 3.75 | – | – | – | – | – | – | – | – | – | – | – | – | – | – | – |
| CC[C@H]1OC(=O)[C@H](C)[C@@H](O[C@H]2C[C@@](C)(OC)[C@@H](O)[C@H](C)O2)[C@H](C)[C@@H](O[C@@H]2O[C@H](C)C[C@H](N(C)C)[C@H]2O)[C@](C)(O)C[C@@H](C)C(=O)[C@H](C)[C@@H](O)[C@]1(C)O [Erythromycin] | – | – | > 50 | > 50 | 50 | > 50 | > 50 | 0.38^* | 0.62 | 0.75 | 1.12 | 0.38^* | 0.5^* | 0.25^* | 0.25^* | 0.5^* | 0.75 |
